Nine molecules from patent US20210283163A1, “COMPOSITIONS AND METHODS FOR THE TREATMENT OF ACUTE AND CHRONIC PRURITIS” (Duke University, priority 2018, published 2021) can be followed below.

One data set has as its system DRG neurons. Briefly: Calcium imaging in cultured DRG neurons of Pirt-GCaMP3 mice. Type of data set: cell-based, mouse. Particulars: histamine 500 μM, CQ 1,000 μM, AITC 200 μM; for DRG neurons showing Ca2+ increase / responses: miR-711 50 μM, 544 neurons from 3 mice. The protocol:
(§1) Primary Cultures of Mouse and Human Sensory Neurons. […] Cells were mechanically dissociated with a flame polished Pasteur pipette in the presence of 0.05% DNase I (Sigma).
(§2) Ca^2+ Imaging. […] The imaging buffer includes 140 mM NaCl, 10 mM D-(+)-Glucose, 1 mM MgCl2, 2 mM CaCl2, 5 mM KCl, 10 mM HEPES, pH=7.4, osmolarity=320 mOsm/L. Calcium signals were measured using green emitted light in a 3 s interval. Ca ^2+ signal amplitudes were presented as ΔF/F0=(Ft−F0)/F0 as ratio of fluorescence difference (Ft−F0) to basal value (F0). The average fluorescence intensity in the baseline period was taken as F0. Ca ^2+ imaging was also analyzed in HEK293-TRPA1 cell line after loading cells with […] fura2-AM (Invitrogen) for 40 min in the Ca^2+ imaging buffer. Ca^2+ imaging protocol was a ratio metric method with 340/380-nm wavelength light for dual excitation. Data were presented as ΔR/R0, determined as the fraction ΔR (Rt−R0) of the increase of a given ratio over baseline ratio (R0).

A further data set concerns TG neurons. As to the kind of experiment: Calcium imaging in TG neurons of Pirt-GCaMP3 mice. Type of data set: cell-based, mouse. The conditions noted are these: histamine 500 μM, CQ 1000 μM, AITC 200 μM; for TG neurons responding (calcium): miR-711 50 μM, 204 neurons. Here is the method:
as §1, §2

The next data set has as its system CTCL mice. As to the kind of experiment: Mouse CTCL xenograft model of chronic itch. Type of data set: in vivo. The conditions noted are these: given 20 days after Myla cell inoculation; hsa-miR-711 inhibitor 100 μM, HC030031 200 μM, A967079 50 μM, peptides 2 mM. The protocol: Mouse CTCL Xenograft Model of Chronic Itch. We developed a murine xenograft model of cutaneous T cell lymphoma (CTCL) using immune-deficient mice (NOD.CB17-Prkdcscid, 8-10 weeks old, male). CD4^+ MyLa cell line was purchased from Sigma (Ca #95051032). The cell line was established from a plaque biopsy of a person with mycosis fungoides stage II by inclusion of IL-2 and IL-4 in the culture medium. CTCL was generated via intradermal injection of CD4^+ Myla cells (1×10^5 cells/μl, 100 μL) on the nape of the neck. Tumor growth was assessed for 40 days by measurements of tumor diameters.
(§3) Behavioral Assessment for Scratching (Itch) and Wiping (Pain). Mice were shaved on the cheek or nape after a brief anesthesia with isoflurane. Before experiments, mice were habituated in small plastic chambers (14×18×12 cm) daily for two days. The room temperature and humidity remained stable for all the experiments. […] After the injection, the number of scratches in 60 min was counted. A scratch was counted when a mouse lifted its hind paw to scratch the shaved region and returned the paw to the floor or to the mouth. A bout of wiping was defined as a continuous wiping movement with a forepaw directing at the area of the injection area (Shimada and LaMotte, Pain 2008, 139, 681-687). Scratching and wiping behavior was videoed for 30 min or 60 min using Sony HDR-CX610 camera. The video was subsequently played back offline and the numbers of scratches and wipes were quantified in a blinded manner.
Generation of Myla Stable Cell Line Expressing miR-711 Inhibitor. CD4^+ Myla cells were plated at a density of 2×10^5 cells/mL in 2 mL culture media in 6-well plates. For each well, 20 μL of the MISSION Lenti microRNA Inhibitor (hsa-miR-711) lentivirus (Sigma) with a titer of 2.6×10^7 Tu/mL were added. Cell mixtures were incubated at 37° C. for 48 hr, washed with PBS three times, and re-suspended in fresh culture media, and 24 hr later, 1 μg/mL puromycin was added to the cells to select stably transduced cell populations. We tried to grow and passage the cells as much as necessary (usually 3 days) and maintained selection pressure by keeping 1 μg/mL puromycin in the medium. After 4 weeks, a large number of the cells were killed; the remaining cells retained the expression of the plasmid, which stably integrates into the genome of the targeted cells. These cells were used for inoculation to generate the CTCL model for testing the effects of miR-711 inhibitor on chronic itch and tumor growth.

The test system of the next data set is naive mice. Type of data set: in vivo, mouse. The conditions noted are these: naive mice; for scratching (itch) after intradermal cheek injection / wiping (pain) after intradermal cheek injection: 1 mM, 5 μL. Here is the method: as §3
The next data set deals with hTRPA1 (Homo sapiens, UniProt O75762). Briefly: Whole-cell patch clamp, inward currents in HEK293 cells expressing hTRPA1. Type of data set: cell-based. The conditions noted are these: bath application; miRNAs and core sequence 10 μM, AITC 50 μM. The protocol:
Cell Culture and Transfection. CD4^+ Myla cell line was cultured in RPMI 1640 media (GIBCO), supplemented with 2 mM Glutamine (GIBCO), 100 U/mL IL-2 (Sigma), 100 U/mL IL-4 (Sigma), and 10% human AB serum (Sigma). HuT 102 cell line was cultured in RPMI 1640 supplemented with pyruvate, HEPES, and 10% (v/v) fetal bovine serum (HyClone). HEK293-hTRPA1 stable cell line was cultured in MEM (GIBCO) containing 2 mM Glutamine, 4 μg/mL Blasticidin, 10% FBS (v/v). B16 and CHO cells were cultured in high glucose (4.5 g/L) Dulbecco's Modified Eagle's Medium (GIBCO) containing 10% (v/v) fetal bovine serum (GIBCO). Culture media were supplemented with 50 units/mL of penicillin and 50 μg/mL streptomycin, and cultures were maintained with 5% CO2 in 37° C. incubator. Transfection (2 μg cDNA) was performed with Lipofectamine™ 2000 Reagent (Invitrogen) at 80% confluency and the transfected cells were cultured in the same media for 48 hr before electrophysiological and biochemical studies.
Whole-Cell Patch Clamp Recordings in HEK293 Cells, CHO Cells, and DRG Neurons. Whole-cell patch clamp recordings were performed at room temperature using an Axopatch-200B amplifier (Axon Instruments) with a Digidata 1440B (Axon Instruments). In this study, we only examined small-diameter mouse DRG neurons (<25 μM) and small-diameter human DRG neurons (<55 μM). The patch pipettes were pulled from borosilicate capillaries (World Precision Instruments) using a P-97 Flaming/Brown micropipette puller (Sutter Instrument). Pipette resistance was 4-6 MΩ for whole-cell and outside-out recording. For inward current recordings in mouse and human DRG neurons, HEK293 cells, and CHO cells, the internal solution contains (in mM): 140 CsCl, 10 EGTA, 10 HEPES, and 2 Mg-ATP, adjusted to pH 7.3 with CsOH. Whole cell recordings were performed in an extracellular solution that contains (in mM): 140 NaCl, 5 KCl, 2 MgCl2, 10 HEPES, and 10 glucose, adjusted to pH 7.4 with NaOH and osmolarity to 300-310 mOsm. […] Action potential recordings were performed in small-diameter DRG neurons, with the following solutions: i) internal pipette solution contains: 126 mM K-gluconate, 10 mM NaCl, 1 mM MgCl2, 10 mM EGTA, 10 mM HEPES and 2 mM Na-ATP, adjusted to pH 7.4 with KOH and osmolarity to 295-300 mOsm), and ii) extracellular solution contains: 140 mM NaCl, 5 mM KCl, 2 mM MgCl2, 2 mM CaCl2, 10 mM HEPES, 10 mM glucose, adjusted to pH 7.4 with KOH.
In general terms: The patch-clamp technique gives a direct electrical read-out from membranes.

A further data set concerns mice. Briefly: Back model: intradermal nape injection, scratching. Type of data set: in vivo, mouse. The conditions noted are these: 1 mM, 10 μL. Here is the method: as §3

hTRPA1, sequence (O75762 whole entry): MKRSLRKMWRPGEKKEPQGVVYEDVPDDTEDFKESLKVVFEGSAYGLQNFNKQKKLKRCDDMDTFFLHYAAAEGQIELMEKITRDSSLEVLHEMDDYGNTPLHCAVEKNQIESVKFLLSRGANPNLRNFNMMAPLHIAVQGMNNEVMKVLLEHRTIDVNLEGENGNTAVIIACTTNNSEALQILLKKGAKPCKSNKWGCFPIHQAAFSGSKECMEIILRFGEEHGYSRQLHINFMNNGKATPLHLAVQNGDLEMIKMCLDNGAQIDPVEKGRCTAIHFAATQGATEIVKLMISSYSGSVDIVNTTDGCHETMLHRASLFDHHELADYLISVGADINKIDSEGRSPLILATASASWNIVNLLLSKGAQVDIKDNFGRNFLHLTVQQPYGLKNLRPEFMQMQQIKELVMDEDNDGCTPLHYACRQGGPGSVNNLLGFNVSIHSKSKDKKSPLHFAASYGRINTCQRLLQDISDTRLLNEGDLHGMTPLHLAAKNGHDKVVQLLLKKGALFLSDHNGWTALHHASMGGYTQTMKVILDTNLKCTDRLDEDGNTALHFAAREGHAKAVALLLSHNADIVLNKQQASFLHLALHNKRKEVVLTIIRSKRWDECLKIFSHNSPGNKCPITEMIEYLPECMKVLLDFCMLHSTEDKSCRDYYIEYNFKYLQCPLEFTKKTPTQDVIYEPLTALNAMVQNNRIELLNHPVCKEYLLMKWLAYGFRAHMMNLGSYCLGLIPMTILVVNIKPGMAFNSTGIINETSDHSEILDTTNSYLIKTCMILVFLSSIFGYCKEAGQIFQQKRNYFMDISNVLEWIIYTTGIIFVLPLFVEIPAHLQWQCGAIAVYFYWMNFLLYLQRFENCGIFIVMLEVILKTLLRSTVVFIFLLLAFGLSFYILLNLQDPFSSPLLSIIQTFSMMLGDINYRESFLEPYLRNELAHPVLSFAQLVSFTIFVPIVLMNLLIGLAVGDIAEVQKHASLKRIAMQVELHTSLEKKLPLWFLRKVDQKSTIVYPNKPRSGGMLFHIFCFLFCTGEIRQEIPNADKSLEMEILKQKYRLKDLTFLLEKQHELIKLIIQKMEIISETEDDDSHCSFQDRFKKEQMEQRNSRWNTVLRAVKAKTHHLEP

Consider `CCN(CC)CCCC(C)Nc1ccnc2cc(Cl)ccc12` (centres unmarked) [CQ, chloroquine], for which, in the data set with DRG neurons, the “miR-711-responsive DRG neurons that also responded” value was 66.7% and the “DRG neurons showing Ca2+ increase / responses” value is 5.1%. For the same molecule, in the data set on TG neurons, the “miR-711-responsive TG neurons that also responded” value was found to be 76% and the “TG neurons responding (calcium)” value amounted to 9.3%.

As to `CC(C)c1ccc(NC(=O)Cn2cnc3c2c(=O)n(C)c(=O)n3C)cc1` [HC30031, 2-(1,3-Dimethyl-2,6-dioxo-1,2,3,6-tetrahydro-7H-purin-7-yl)-N-(4-isopropylphenyl)acetamide], in the data set with CTCL mice, the “effect on CTCL-evoked chronic itch” value was “suppressed”.

`NCCc1c[nH]cn1` [histamine]: in the data set with DRG neurons, the “miR-711-responsive DRG neurons that also responded” value was determined as 61.9% and the “DRG neurons showing Ca2+ increase / responses” value is recorded as 5.5%. Also, in the data set on TG neurons, the “miR-711-responsive TG neurons that also responded” value amounted to 52% and the “TG neurons responding (calcium)” value turned out to be 6.9%.

Consider “AAAAAAA: Mmu-miR-711 mutant: aaaaaaa (SEQ ID NO: 17) (listed as RNA, chemistry not given here)”, for which, in the data set with naive mice, the “scratching after intradermal injection of 7-nucleotide oligos” value is listed as “did not affect” and the “wiping after intradermal injection of 7-nucleotide oligos” value was “did not affect”.

In the case of “GGGACCC: mmu-miR-711 core: gggaccc (SEQ ID NO: 1) (listed as RNA, chemistry not given here)”, in the data set on naive mice, the “scratching after intradermal injection of 7-nucleotide oligos” value is recorded as “sufficient to elicit scratching” and the “wiping after intradermal injection of 7-nucleotide oligos” value is recorded as “not wiping”. Besides, the inward currents result in the data set with hTRPA1 was “inward currents induced”.

On to “m1: mutant of miR-711: aaaacccggggagagauguaag (SEQ ID NO: 11) (AAAACCCGGGGAGAGAUGUAAG; listed as RNA, chemistry not given here)”, for which, in the data set on naive mice, the “scratching (itch) after intradermal cheek injection” value is recorded as “marked reduction in scratching”.

“m2: mutant of miR-711: gggaaaaggggagagauguaag (SEQ ID NO: 12) (GGGAAAAGGGGAGAGAUGUAAG; listed as RNA, chemistry not given here)”: the “scratching (itch) after intradermal cheek injection” value in the data set with naive mice was “marked reduction in scratching”.

Turning to “miR-155: mmu-miR-155: uuaaugcuaauugugauaggggu (SEQ ID NO: 7) (UUAAUGCUAAUUGUGAUAGGGGU; listed as RNA, chemistry not given here)”, the “wiping (pain) after intradermal cheek injection” value in the data set on naive mice is “Neither did”. In addition, in the data set on mice, the “scratching after intradermal injection on the nape of neck” value was “no effects”.

In the case of “miR-326: mmu-miR-326: gggggcagggccuuugugaaggcg (SEQ ID NO: 8) (GGGGGCAGGGCCUUUGUGAAGGCG; listed as RNA, chemistry not given here)”, the “wiping (pain) after intradermal cheek injection” value with naive mice is given as “Neither did”. In the data set on mice, the “scratching after intradermal injection on the nape of neck” value is “no effects”.
